According to patent US8586577B2, “Diazepane acetamide derivatives as selective 11B-HSD1 inhibitors” (Merck Patent GmbH, priority 2006, dated 2013):
One block for each compound: values may come before it.

Columns and labels:
Format in all cases: biochemical
mouse 11-beta HSD-1 = target: T1, mouse 11-beta HSD-1 (Mus musculus, UniProt P50172); assay: 11beta-HSD1 enzyme assay, mice liver microsome fractions, HTRF cortisol detection; details: for IC50: read-out: Inhibition of mouse 11-beta HSD-1 IC50
T1 construct: or as microsome fractions from mice liver (2.5 μg); tissue TEBU; host or cells: mouse liver microsome fractions
Method: (§1) Human recombinant 11beta-hydroxysteroid dehydrogenase type 1 (11beta-HSD1) enzyme and type 2 (11beta-HSD2) enzymes were expressed expressed in E. coli. Mice liver microsome fractions were purchased from TEBU.
(§2) The 11beta-HSD1 enzyme assay was carried out in 96 well microliter plates in a total volume of 100 μl containing 30 mM Hepes buffer, pH 7.4 with 1 mM EDTA, substrate mixture cortisone/NADPH (200 nM/200 μM), G-6-P (1 mM) and inhibitors in serial dilutions. Reactions were initiated by addition of 10 μl 11beta-HSD1 (3 μg) from E. coli, or as microsome fractions from mice liver (2.5 μg). Following mixing, the plates were shaken for 150 minutes at 37° C. The reactions were terminated with 10 μl Acid-18beta glycyrrhetinic stop solution. Determinations of cortisol levels in 11 beta-HSD1 preparations were monitored by HTRF (HTRF cortisol assay from C is bio international).
(§3) Activity is expressed in % of control or concentration to inhibit 50% of the enzyme activity (IC50).

human 11-beta HSD-2 = target: T2, human 11-beta HSD-2 (Homo sapiens, UniProt P80365); assay: 11beta-HSD2 enzyme assay, human recombinant enzyme (cortisol, NAD, carbenoxolone stop); details: for IC50: read-out: Inhibition of human 11-beta HSD-2 IC50; for Selectivity Ratio human HSD2/HSD1: ratio of IC50 human HSD-2 to human HSD-1
T2 construct: made in house; host or cells: E. coli
T2 sequence (P80365 1-405): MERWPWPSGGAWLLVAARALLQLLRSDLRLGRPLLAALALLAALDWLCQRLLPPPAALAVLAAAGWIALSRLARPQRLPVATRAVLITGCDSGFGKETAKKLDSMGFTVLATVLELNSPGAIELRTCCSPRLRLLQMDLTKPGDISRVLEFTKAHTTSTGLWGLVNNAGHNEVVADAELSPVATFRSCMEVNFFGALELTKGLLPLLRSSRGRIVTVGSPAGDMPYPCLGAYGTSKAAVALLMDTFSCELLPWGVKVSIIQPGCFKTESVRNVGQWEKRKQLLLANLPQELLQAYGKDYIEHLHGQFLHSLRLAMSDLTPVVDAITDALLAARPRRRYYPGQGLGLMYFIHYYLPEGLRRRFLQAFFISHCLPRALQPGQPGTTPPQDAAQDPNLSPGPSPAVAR
Method: [Worded in the source for another target; used here, by the source, with some conditions changed.] as §1, §2, §3

human 11-beta HSD-1 = target: T3, human 11-beta HSD-1 (Homo sapiens, UniProt P28845); assay: 11beta-HSD1 enzyme assay, human recombinant enzyme from E. coli, HTRF cortisol detection; details: cortisone/NADPH 200 nM/200 μM, 150 min at 37° C., read-out: Inhibition of human 11-beta HSD-1 IC50
T3 construct: made in house; host or cells: E. coli
Method: as §1, §2, §3

T3 sequence (P28845 whole entry): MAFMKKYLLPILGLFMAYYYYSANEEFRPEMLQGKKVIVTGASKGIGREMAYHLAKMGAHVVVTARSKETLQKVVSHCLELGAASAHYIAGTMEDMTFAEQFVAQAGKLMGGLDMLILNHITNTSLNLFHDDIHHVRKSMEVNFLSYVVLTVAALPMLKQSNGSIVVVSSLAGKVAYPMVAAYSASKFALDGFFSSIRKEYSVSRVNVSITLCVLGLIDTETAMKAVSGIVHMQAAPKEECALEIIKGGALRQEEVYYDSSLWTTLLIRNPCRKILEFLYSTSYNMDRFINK
T1 sequence (P50172 whole entry): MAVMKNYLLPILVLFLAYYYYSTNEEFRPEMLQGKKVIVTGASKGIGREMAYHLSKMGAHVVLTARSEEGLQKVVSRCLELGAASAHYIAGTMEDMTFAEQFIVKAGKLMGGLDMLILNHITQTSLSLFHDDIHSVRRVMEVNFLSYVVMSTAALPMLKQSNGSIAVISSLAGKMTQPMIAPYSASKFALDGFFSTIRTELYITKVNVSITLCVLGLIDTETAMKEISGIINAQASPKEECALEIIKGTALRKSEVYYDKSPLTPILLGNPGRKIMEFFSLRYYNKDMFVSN

SMILES: O=C(CN1CCCN(S(=O)(=O)c2ccccc2Cl)CC1)N1CCCC2CCCCC21 (centres unmarked) [Ex 2, 2-[4-(2-Chloro-benzenesulfonyl)-[1,4]diazepan-1-yl]-1-(octahydro-quinolin-1-yl)-ethanone]
IC50 (mouse 11-beta HSD-1): 250 nM
Inhibition of human 11-beta HSD-2, activity in % of control (human 11-beta HSD-2; at 10 μM, human recombinant enzyme): 81% of Ctrl

SMILES: O=C(CN1CCCN(S(=O)(=O)c2ccccc2F)CC1)N1CCCC2CCCCC21 (centres unmarked) [Ex 2-1, 2-[4-(2-Fluoro-benzenesulfonyl)-[1,4]diazepan-1-yl]-1-(octahydro-quinolin-1-yl)-ethanone]
Inhibition of mouse 11-beta HSD-1, activity in % of control (mouse 11-beta HSD-1; at 1 μM): 53% of Ctrl
IC50 (human 11-beta HSD-1): 27 nM
IC50 (human 11-beta HSD-2; human recombinant enzyme): 3000 nM
Selectivity Ratio human HSD2/HSD1 (human 11-beta HSD-2): 111

SMILES: O=C(CN1CCCN(S(=O)(=O)c2c(F)cccc2F)CC1)N1CCCC2CCCCC21 (centres unmarked) [Ex 2-2, 2-[4-(2,6-Difluoro-benzenesulfonyl)-[1,4]diazepan-1-yl]-1-(octahydro-quinolin-1-yl)-ethanone]
IC50 (human 11-beta HSD-1): 17 nM

SMILES: O=C(CN1CCCN(S(=O)(=O)c2ccccc2F)CC1)N(C1CCCCC1)C1CC1 [Ex 3, N-Cyclohexyl-N-cyclopropyl-2-[4-(2-fluoro-benzenesulfonyl)-[1,4]diazepan-1-yl]-acetamide]
IC50 (mouse 11-beta HSD-1): 230 nM
IC50 (human 11-beta HSD-1): 76 nM
IC50 (human 11-beta HSD-2; human recombinant enzyme): 7000 nM
Selectivity Ratio human HSD2/HSD1 (human 11-beta HSD-2): 92

Now from value to compound:

IC50 (human 11-beta HSD-1): 430 nM
SMILES: CN(C(=O)CN1CCCN(S(=O)(=O)c2ccccc2F)CC1)C1CCCCC1 [Ex 3-3, N-Cyclohexyl-2-[4-(2-fluoro-benzenesulfonyl)-[1,4]diazepan-1-yl]-N-methyl-acetamide]

IC50 (human 11-beta HSD-1): 420 nM
SMILES: O=C(CN1CCCN(S(=O)(=O)c2ccccc2Cl)CC1)N1CCCCC1 [Ex 3-6, 2-[4-(2-Chloro-benzenesulfonyl)-[1,4]diazepan-1-yl]-1-piperidin-1-yl-ethanone]

IC50 (human 11-beta HSD-1): 122 nM
SMILES: O=C(CN1CCCN(S(=O)(=O)c2ccccc2F)CC1)N1CCC2(C=Cc3ccccc32)CC1 [Ex 3-10, 2-[4-(2-fluoro-benzenesulfonyl)-[1,4]diazepan-1-yl]-1-spiro[1H-inden-1,4′piperidin-1-yl)-ethanone]
